≈ marks a conversion by molar mass, not a printed value. Where a name gives a salt, the structure may show the parent alone. Read-outs that look alike come from different tables or passages of the source.
Columns and labels:
AmpC [1] = biological target: T1, AmpC (Enterobacter cloacae, UniProt P05364); test: biochemical
CTX-M15 = CTX-M15 (Escherichia coli, UniProt Q9EXV5); test: In vitro enzyme inhibition assay (nitrocefin hydrolysis), CTX-M15; type: biochemical
Protocol: (§1) Compound dilution was performed in DMSO.

[2] = system: NTBC091.1 (E. coli strain expressing KPC-2, TEM-1); test: Meropenem potentiation, broth micro-dilution MIC, strain NTBC091.1; type: cell-based; conditions: for MIC mero + 4 μg/mL inhibitor (banded): NTBC091.1, MIC of meropenem with 4 μg/mL of the labelled inhibitor, band; for MIC of meropenem + compound compared with meropenem + avibactam: NTBC091.1
Protocol: (§4) The experiments were carried out using the ‘broth micro-dilution method’ according to the protocols M07-A8 established by the Clinical Laboratory Standards Institute (CLSI). […] After incubation for 18-20 hours in a heating chamber at 37° C., the growth inhibition was evaluated by the absence of any bacterial development.
(§5) Compounds of the invention were tested at concentrations of 4 μg/mL.

OXA-48 = OXA-48 (Klebsiella pneumoniae, UniProt Q6XEC0); test: In vitro enzyme inhibition assay (nitrocefin hydrolysis), OXA-48; type: biochemical
Sequence of OXA-48 (Q6XEC0 23-265 limits assumed): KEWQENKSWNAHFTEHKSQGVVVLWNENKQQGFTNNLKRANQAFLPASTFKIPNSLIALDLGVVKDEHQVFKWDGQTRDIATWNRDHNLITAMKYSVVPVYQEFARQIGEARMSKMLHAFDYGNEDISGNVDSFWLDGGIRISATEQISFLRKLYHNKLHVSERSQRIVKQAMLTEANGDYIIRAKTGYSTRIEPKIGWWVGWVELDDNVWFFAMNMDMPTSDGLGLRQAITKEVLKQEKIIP
Protocol: as §1

KPC-2 = KPC-2 (Klebsiella pneumoniae, UniProt Q9F663); test: In vitro enzyme inhibition assay (nitrocefin hydrolysis), KPC-2; type: biochemical
Sequence of KPC-2 (Q9F663 25-293 limits assumed): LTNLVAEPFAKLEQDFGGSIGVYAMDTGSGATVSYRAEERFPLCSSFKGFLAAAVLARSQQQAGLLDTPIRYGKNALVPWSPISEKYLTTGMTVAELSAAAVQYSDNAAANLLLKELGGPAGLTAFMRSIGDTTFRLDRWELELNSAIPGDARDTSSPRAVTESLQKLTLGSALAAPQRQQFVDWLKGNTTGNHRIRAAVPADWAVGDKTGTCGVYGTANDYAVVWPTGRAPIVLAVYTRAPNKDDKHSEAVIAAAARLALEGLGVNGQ
Protocol: as §1

[3] = system: NTBC096.1 (K. pneumoniae strain expressing OXA-181 and SHV-11); test: Meropenem potentiation, broth micro-dilution MIC, strain NTBC096.1; type: cell-based; conditions: for MIC: Klebsiella pneumoniae, read-out: MIC mero + 4 μg/mL inhibitor
Protocol: as §4, §5

[4] = system: NTBC189 (K. pneumoniae strain expressing TEM-OSBL(b), CTX-M-14, OXA-48(c)); test: Meropenem potentiation, broth micro-dilution MIC, strain NTBC189; conditions: for MIC: Klebsiella pneumoniae, read-out: MIC mero + 4 μg/mL inhibitor
Protocol: as §4, §5

[5] = system: NTBC093 (E. cloacae strain expressing KPC-2, TEM-1); test: Meropenem potentiation, broth micro-dilution MIC, strain NTBC093; conditions: for MIC: Enterobacter cloacae, read-out: MIC mero + 4 μg/mL inhibitor
Protocol: as §4, §5

[6] = system: KPC-expressing clinical strain of Klebsiella pneumoniae (NR-48977); test: MIC against strain used in thigh model, NR-48977; type: cell-based
From the text: (§2) Compounds of the invention were further examined in animal efficacy models.

[7] = system: OXA-expressing clinical strain of Acinetobacter baumannii (AC00445); test: MIC against strain used in thigh model, AC00445; type: cell-based
From the text: as §2

[8] = system: panel of 48 A. baumannii strains (OXA positive clinical isolates); test: Cumulative MIC, panel of 48 A. baumannii strains (FIG. 3)
[9] = system: clinical strains of OXA positive enterobacteriaceae; test: Cumulative MIC, panel of clinical strains of OXA positive enterobacteriaceae (FIG. 1A); conditions: antibiotic alone or clinical combination
AmpC [10] = biological target: T1, AmpC; conditions: read-out: Amp-C mean IC50 (banded); nitrocefin 100 μM, band
TEM-1 = TEM-1 (Escherichia coli, UniProt P62593); test: In vitro enzyme inhibition assay (nitrocefin hydrolysis), TEM-1; type: biochemical; conditions: nitrocefin 100 μM, band; read-out: TEM-1 mean IC50 (banded)
Sequence of TEM-1 (P62593 24-286 limits assumed): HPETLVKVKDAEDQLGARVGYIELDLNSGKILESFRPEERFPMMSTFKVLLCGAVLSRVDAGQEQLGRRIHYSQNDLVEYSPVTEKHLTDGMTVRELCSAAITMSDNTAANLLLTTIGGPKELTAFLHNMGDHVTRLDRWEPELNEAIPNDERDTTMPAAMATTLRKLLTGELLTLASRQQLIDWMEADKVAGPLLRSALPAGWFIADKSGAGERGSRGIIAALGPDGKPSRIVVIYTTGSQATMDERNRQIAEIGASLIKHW
Protocol: as §1

[11] = system: NTBC099 (K. pneumoniae strain expressing KPC-3, SHV-11 and TEM-1); test: Meropenem potentiation, broth micro-dilution MIC, strain NTBC099; conditions: Klebsiella pneumoniae, read-out: MIC mero + 4 μg/mL inhibitor
Protocol: as §4, §5

[12] = system: clinical strains of KPC positive enterobacteriaceae; conditions: FIG. 2, meropenem + 4 μg/mL inhibitor
[13] = system: OXA-expressing clinical strain of Klebsiella pneumoniae (AC00783); test: MIC against strain used in thigh model, AC00783; type: cell-based
From the text: as §2

[14] = system: OXA-expressing clinical strain of Acinetobacter baumannii (AC00445); test: Mouse thigh infection efficacy model, AC00445; type: in vivo; conditions: mice, IV at 1, 3, 5 and 7 hours post infection with constant dose of meropenem, 9 hours post infection
Protocol: as §2
(§3) Vehicle, meropenem alone or meropenem and a compound of the invention (Example 10) were administered by IV at 1, 3, 5 and 7 hours post infection. 9 hours post infection animals were sacrificed and the number of colony forming units (CFUs) was measured in order to quantify bacterial burden (colony forming units per gram thigh tissue, CFU/g).

[15] = system: KPC-expressing clinical strain of Klebsiella pneumoniae (NR-48977); test: Mouse thigh infection efficacy model, NR-48977; type: in vivo; conditions: mice, IV at 1, 3, 5 and 7 hours post infection with constant dose of meropenem, 9 hours post infection
Protocol: as §2, §3

[16] = system: larger panel of clinical strains of OXA positive enterobacteriaceae; test: Cumulative MIC, larger panel of clinical strains of OXA positive enterobacteriaceae (FIG. 1B); conditions: meropenem + 4 μg/mL inhibitor
[17] = system: OXA-expressing clinical strain of Klebsiella pneumoniae (AC00783); test: Mouse thigh infection efficacy model, AC00783; type: in vivo; conditions: mice, IV at 1, 3, 5 and 7 hours post infection with constant dose of meropenem, 9 hours post infection
Protocol: as §2, §3

T1 sequence (P05364 21-381): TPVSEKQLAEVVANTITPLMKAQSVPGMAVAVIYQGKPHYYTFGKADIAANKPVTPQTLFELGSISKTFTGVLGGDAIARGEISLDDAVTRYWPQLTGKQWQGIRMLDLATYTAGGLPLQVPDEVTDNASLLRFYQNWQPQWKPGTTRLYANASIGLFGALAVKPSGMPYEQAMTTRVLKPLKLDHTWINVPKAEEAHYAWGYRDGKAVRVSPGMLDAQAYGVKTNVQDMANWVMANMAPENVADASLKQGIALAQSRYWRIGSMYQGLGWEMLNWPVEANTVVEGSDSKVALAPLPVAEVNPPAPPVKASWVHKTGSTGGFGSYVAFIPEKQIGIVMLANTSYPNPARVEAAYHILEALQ
Sequence of CTX-M15 (Q9EXV5 entry or part of it): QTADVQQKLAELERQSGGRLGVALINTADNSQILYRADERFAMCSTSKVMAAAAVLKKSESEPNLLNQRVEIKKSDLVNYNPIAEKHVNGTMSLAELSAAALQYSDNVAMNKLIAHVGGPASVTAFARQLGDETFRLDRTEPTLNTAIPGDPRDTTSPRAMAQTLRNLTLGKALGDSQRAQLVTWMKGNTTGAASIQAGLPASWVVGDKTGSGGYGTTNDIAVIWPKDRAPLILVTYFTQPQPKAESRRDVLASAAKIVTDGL

Compound | IC50 (AmpC [1]) | IC50 (CTX-M15) | MIC mero + 4 μg/mL inhibitor (banded) [2] | IC50 (OXA-48) | IC50 (KPC-2) | further results
O=C1N2C[C@@H](CC[C@H]2CF)N1OS(=O)(=O)[O-].[Na+] [Example 4, Sodium (2S, 5R)-2-(fluoromethyl)-7-oxo-1,6-diazabicyclo[3.2.1]octan-6-yl sulphate] | < 0.01 µM | 0.005 to 0.02 µM | (A) (1 μg/mL) | 0.2 to 0.3 µM | > 0.01 µM | 
O=C1N2C[C@@H](CC[C@H]2C(F)(F)F)N1OS(=O)(=O)O [Example 1, Sodium (2S, 5R)-7-oxo-2-(trifluoromethyl)-1,6-diazabicyclo[3.2.1]octan-6-yl sulfate] |  | 0.005 to 0.02 µM | (A) (1 μg/mL) | < 0.02 µM | < 0.01 µM | MIC of meropenem + compound compared with meropenem + avibactam [2]: lower; MIC [3]: 4 mg/L; MIC [4]: 2 mg/L; MIC [5]: 0.06 mg/L
O=C1N2C[C@@H](CC[C@H]2C(F)(F)c2nccs2)N1OS(=O)(=O)[O-].[Na+] [Example 9, Sodium (2S, 5R)-2-[difluoro(1,3-thiazol-2-yl)methyl]-7-oxo-1,6-diazabicyclo[3.2.1]octan-6-yl sulphate] | < 0.01 µM | 0.02 to 0.1 µM | (A) (1 μg/mL) | 0.2 to 0.3 µM | < 0.01 µM | 
C[C@@H](O)[C@H]1C(=O)N2C(C(=O)O)=C(S[C@@H]3CN[C@H](C(=O)N(C)C)C3)[C@H](C)[C@H]12 [meropenem, reference compound] |  |  |  |  |  | MIC ([6]; Klebsiella pneumoniae, read-out: MIC (meropenem alone)): 64 mg/L (≈ 167 µM); MIC ([7]; Acinetobacter baumannii, read-out: MIC (meropenem alone)): 64 mg/L (≈ 167 µM); % of the strains susceptible ([8]; FIG. 3, in the presence of 2 μg/mL of each inhibitor, antibiotic alone or clinical combination): 0%; fraction of strains susceptible at an MIC of 1 μg/mL [9]: 0%
O=C1N2C[C@@H](CC[C@H]2SC(F)(F)F)N1OS(=O)(=O)[O-].[Na+] [Example 7, Sodium (2R, 5R)-7-oxo-2-[(trifluoromethyl)sulfanyl]-1,6-diazabicyclo[3.2.1]octan-6-yl sulphate] | 0.04 to 0.06 µM |  | (A) (1 μg/mL) | 0.2 to 0.3 µM | > 0.01 µM | 
O=C1N2C[C@@H](CC[C@H]2CCl)N1OS(=O)(=O)[O-].[Na+] [Example 6, Sodium (2S, 5R)-2-(chloromethyl)-7-oxo-1,6-diazabicyclo[3.2.1]octan-6-yl sulphate] | 0.01 to 0.04 µM |  | (A) (1 μg/mL) | 0.2 to 0.3 µM | > 0.01 µM | 
CC(F)(F)[C@@H]1CC[C@@H]2CN1C(=O)N2OS(=O)(=O)[O-].[Na+] [Example 5, Sodium (2S, 5R)-2-(1,1-difluoroethyl)-7-oxo-1,6-diazabicyclo[3.2.1]octan-6-yl sulphate] | 0.04 to 0.06 µM | 0.005 to 0.02 µM | (A) (1 μg/mL) | 0.02 to 0.1 µM | > 0.01 µM | 
NC(=O)[C@@H]1CC[C@@H]2CN1C(=O)N2OS(=O)(=O)O [Avibactam, avibactam, reference compound] |  |  | A (1 μg/mL) |  |  | IC50 (CTX-M15; nitrocefin 50 μM, band, read-out: CTX-M15 mean IC50 (banded)): < 0.005 µM; MIC mero + 4 μg/mL inhibitor (banded) ([3]; NTBC096.1, MIC of meropenem with 4 μg/mL of the labelled inhibitor, band): B (MIC=1 or 2 μg/mL); IC50 (AmpC [10]): < 0.01 µM; MIC mero + 4 μg/mL inhibitor (banded) ([4]; NTBC189, MIC of meropenem with 4 μg/mL of the labelled inhibitor, band): A (1 μg/mL); MIC mero + 4 μg/mL inhibitor (banded) ([5]; NTBC093, MIC of meropenem with 4 μg/mL of the labelled inhibitor, band): A (1 μg/mL); MIC mero + 4 μg/mL inhibitor ([5]; NTBC093, MIC of meropenem with 4 μg/mL of the labelled inhibitor, value): 0.03 mg/L
O=C1N2C[C@@H](CC[C@@H]2F)N1OS(=O)(=O)[O-].[Na+] [Example 11, Sodium (2S, 5R)-2-fluoro-7-oxo-1,6-diazabicyclo [3.2.1]octan-6-yl sulfate] | > 0.06 µM |  | (A) (1 μg/mL) | > 0.3 µM | > 0.01 µM | IC50 (TEM-1): > 0.01 µM
O=C1N2C[C@@H](CC[C@H]2C(F)F)N1OS(=O)(=O)O [Example 2, Sodium (2S, 5R)-7-oxo-2-(difluoromethyl)-1,6-diazabicyclo[3.2.1]octan-6-yl sulfate] |  | 0.005 to 0.02 µM | (A) (1 μg/mL) | 0.02 to 0.1 µM | < 0.01 µM | MIC of meropenem + compound compared with meropenem + avibactam [2]: lower; MIC [3]: 4 mg/L; MIC [11]: 1 mg/L; MIC [4]: 2 mg/L; MIC [5]: 0.06 mg/L
O=C1N2C[C@@H](CC[C@H]2COC(F)(F)F)N1OS(=O)(=O)[O-].[Na+] [Example 8, Sodium (2S, 5R)-7-oxo-2-[(trifluoromethoxy)methyl]-1,6-diazabicyclo[3.2.1]octan-6-yl sulphate] | 0.04 to 0.06 µM | 0.1 to 0.2 µM | (A) (1 μg/mL) | 0.2 to 0.3 µM | < 0.01 µM | 
O=C1N2C[C@@H](CC[C@H]2F)N1OS(=O)(=O)[O-].[Na+] [Example 10, Sodium (2R,5R)-2-fluoro-7-oxo-1,6-diazabicyclo[3.2.1]octan-6-yl sulfate] | 0.01 to 0.04 µM |  | (A) (1 μg/mL) | 0.2 to 0.3 µM | > 0.01 µM | MIC50 of meropenem with addition of 4 μg/mL of inhibitor [12]: 0.12 mg/L; MIC (Meropenem + inhibitor at 4 μg/mL) [13]: 0.25 mg/L; bacterial burden (colony forming units per gram thigh tissue) [14]: dose response; MIC (Meropenem + inhibitor at 4 μg/mL) ([6]; NR-48977): 1 mg/L; IC50 (TEM-1): < 0.003 µM; MIC (Meropenem + inhibitor at 4 μg/mL) ([7]; AC00445): 4 mg/L; bacterial burden (colony forming units per gram thigh tissue) [15]: dose response; MIC of meropenem + compound compared with meropenem + avibactam [2]: lower; MIC of meropenem + compound compared with meropenem + avibactam ([3]; NTBC096.1): lower; % of the strains susceptible ([8]; FIG. 3, in the presence of 2 μg/mL of each inhibitor, inhibitor in combination with meropenem): around 50%; % of the strains susceptible ([8]; FIG. 3, in the presence of 16 μg/mL of each inhibitor, inhibitor in combination with meropenem): ~100%; MIC90 of meropenem with addition of 4 μg/mL of inhibitor ([8]; FIG. 3, meropenem + 4 μg/mL inhibitor): 8 mg/L; MIC50 of meropenem with addition of 4 μg/mL of inhibitor [16]: 0.12 mg/L; MIC90 of meropenem with addition of 4 μg/mL of inhibitor [16]: 0.5 mg/L; MIC of meropenem + compound compared with meropenem + avibactam ([4]; NTBC189): lower; bacterial burden (colony forming units per gram thigh tissue) [17]: dose response; MIC of meropenem + compound compared with meropenem + avibactam ([5]; NTBC093): similar
O=C1N2C[C@@H](CC[C@H]2C(Cl)Cl)N1OS(=O)(=O)O [Example 3, Sodium (2S,5R)-2-(dichloromethyl)-7-oxo-1,6-diazabicyclo[3.2.1]octan-6-yl sulfate] | 0.04 to 0.06 µM | 0.02 to 0.1 µM | (A) (1 μg/mL) | 0.1 to 0.2 µM | < 0.01 µM | 
O=C1N2C[C@@H](CC[C@H]2Cl)N1OS(=O)(=O)[O-].[Na+] [Example 12, Sodium (2R,5R)-2-chloro-7-oxo-1,6-diazabicyclo[3.2.1]octan-6-yl sulfate] | < 0.01 µM |  | (A) (1 μg/mL) | > 0.3 µM | > 0.01 µM | IC50 (TEM-1): < 0.003 µM; MIC of meropenem + compound compared with meropenem + avibactam [2]: lower
